The values that follow come from ChEMBL document CHEMBL4033699, “Insights into the myosin II inhibitory potency of A-ring-modified (S)-blebbistatin analogs” (Bioorg Med Chem Lett, 2017).

pIC50: −log10 of the molar value.

Data set [1] is described as follows: Inhibition of F-actin activated rabbit full length myosin 2 ATPase activity after 1 hr by CytoPhos reagent based assay. Also noted: species or system Oryctolagus cuniculus.
The nature of data set [2]: Solubility of the compound in Tris-HCl at pH 7.5. The class given is physicochemical. The conditions noted are these: Tris-HCl buffer.

The term pIC50 denotes −log10 of the IC50, conventionally taken in molar units. Low readings indicate a high IC50, high ones a low IC50. In general, solubility refers to the dissolved amount per volume that the medium holds. A higher solubility goes with much dissolved substance. For the compound `Cc1ccc2c(c1)C(=O)[C@]1(O)CCN(c3ccccc3)C1=N2`, in data set [1], the pIC50 is 5.99. Besides, the solubility in data set [2] was under 100 µM.
On the same counts, the results for `C=CCN1CCc2cc3c(cc21)N=C1N(c2ccccc2)CC[C@@]1(O)C3=O` are 5.07 and under 40 µM.
On the same counts, the results for `O=C1c2cc3c(cc2N=C2N(c4ccccc4)CC[C@@]12O)NCC3` are 4.84 and under 50 µM.
On the same counts, the results for `O=C1c2cc3ccccc3cc2N=C2N(c3ccccc3)CC[C@@]12O` are 5.10 and under 15 µM.
`O=C1c2cc3cc[nH]c3cc2N=C2N(c3ccccc3)CC[C@@]12O`: the negative-log IC50 (pIC50) in data set [1] is under 4.70. The same compound returned a solubility in data set [2] of under 40 µM.
